In the NIST ThermoML archive (doi:10.1021/acs.jced.8b00554):

Experiment: xn = mol fraction of the nth substance listed
Details: Liquid, Vibrating tube method

CCCCCCCC [octane] + CCCO
mass density [kg/m3]
Details | 353.15 K | 363.15 K
100 kPa, x2 = 0.1631 | – | 643.75
100 kPa, x2 = 0.2111 | – | 645.23
100 kPa, x2 = 0.3158 | – | 649.43
100 kPa, x2 = 0.4411 | – | 656.74
100 kPa, x2 = 0.7301 | – | 685.03
100 kPa, x2 = 0.8823 | – | 711.1
1000 kPa, x2 = 0.2111 | – | 646.4
1010 kPa, x2 = 0.1631 | – | 644.92
1010 kPa, x2 = 0.3158 | – | 650.63
1020 kPa, x2 = 0.4411 | – | 658.07
1020 kPa, x2 = 0.7301 | – | 686.21
1020 kPa, x2 = 0.8823 | – | 712.01
2000 kPa, x2 = 0.3158 | – | 652.01
2000 kPa, x2 = 0.4411 | – | 659.42
2000 kPa, x2 = 0.7301 | – | 687.5
2000 kPa, x2 = 0.8823 | – | 713.23
2010 kPa, x2 = 0.1631 | – | 646.32
2010 kPa, x2 = 0.2111 | – | 647.77
3000 kPa, x2 = 0.1631 | – | 647.65
3010 kPa, x2 = 0.3158 | – | 653.38
3010 kPa, x2 = 0.4411 | – | 660.78
3010 kPa, x2 = 0.8823 | – | 714.49
3020 kPa, x2 = 0.2111 | – | 649.11
3020 kPa, x2 = 0.7301 | – | 688.81
4010 kPa, x2 = 0.2111 | – | 650.5
4010 kPa, x2 = 0.3158 | – | 654.7
4010 kPa, x2 = 0.4411 | – | 662.14
4010 kPa, x2 = 0.8823 | – | 715.75
4020 kPa, x2 = 0.1631 | – | 649
4020 kPa, x2 = 0.7301 | – | 690.17
5000 kPa, x2 = 0.2111 | – | 651.8
5000 kPa, x2 = 0.3158 | – | 656.03
5000 kPa, x2 = 0.7301 | – | 691.49
5010 kPa, x2 = 0.1631 | – | 650.29
5010 kPa, x2 = 0.8823 | – | 716.99
5020 kPa, x2 = 0.4411 | – | 663.46
6000 kPa, x2 = 0.8823 | – | 718.21
6010 kPa, x2 = 0.1631 | – | 651.6
6010 kPa, x2 = 0.2111 | – | 653.06
6020 kPa, x2 = 0.3158 | – | 657.34
6020 kPa, x2 = 0.4411 | – | 664.8
6020 kPa, x2 = 0.7301 | – | 692.76
7000 kPa, x2 = 0.1631 | – | 652.93
7000 kPa, x2 = 0.3158 | – | 658.67
7000 kPa, x2 = 0.4411 | – | 666.13
7010 kPa, x2 = 0.2111 | – | 654.35
7020 kPa, x2 = 0.7301 | – | 694.08
7020 kPa, x2 = 0.8823 | – | 719.45
8000 kPa, x2 = 0.3158 | – | 660
8010 kPa, x2 = 0.1631 | – | 654.22
8010 kPa, x2 = 0.2111 | – | 655.68
8010 kPa, x2 = 0.8823 | – | 720.66
8020 kPa, x2 = 0.4411 | – | 667.45
8020 kPa, x2 = 0.7301 | – | 695.38
9000 kPa, x2 = 0.1631 | – | 655.49
9000 kPa, x2 = 0.8823 | – | 721.91
9010 kPa, x2 = 0.3158 | – | 661.3
9010 kPa, x2 = 0.4411 | – | 668.75
9010 kPa, x2 = 0.7301 | – | 696.66
9020 kPa, x2 = 0.2111 | – | 656.97
10000 kPa, x2 = 0.1631 | – | 656.77
10000 kPa, x2 = 0.4411 | – | 670.08
10010 kPa, x2 = 0.2111 | – | 658.25
10010 kPa, x2 = 0.3158 | 674.1 | –
10010 kPa, x2 = 0.4411 | 682.1 | –
10010 kPa, x2 = 0.7301 | 710.33 | –
10010 kPa, x2 = 0.8823 | – | 723.12
10020 kPa, x2 = 0.3158 | – | 662.62
10020 kPa, x2 = 0.7301 | – | 697.93
11000 kPa, x2 = 0.1631 | 668.3 | 658.05
11000 kPa, x2 = 0.4411 | – | 671.35
11000 kPa, x2 = 0.7301 | 711.46 | –
11000 kPa, x2 = 0.8823 | 735.72 | –
11010 kPa, x2 = 0.2111 | – | 659.52
11010 kPa, x2 = 0.3158 | – | 663.89
11010 kPa, x2 = 0.4411 | 683.25 | –
11010 kPa, x2 = 0.7301 | – | 699.17
11020 kPa, x2 = 0.2111 | 670.17 | –
11020 kPa, x2 = 0.3158 | 675.25 | –
11020 kPa, x2 = 0.8823 | – | 724.31
12000 kPa, x2 = 0.1631 | – | 659.27
12000 kPa, x2 = 0.2111 | 671.35 | –
12000 kPa, x2 = 0.3158 | 676.4 | –
12000 kPa, x2 = 0.4411 | 684.41 | –
12000 kPa, x2 = 0.7301 | 712.61 | –
12000 kPa, x2 = 0.8823 | – | 725.46
12010 kPa, x2 = 0.1631 | 669.46 | –
12010 kPa, x2 = 0.2111 | – | 660.8
12010 kPa, x2 = 0.3158 | – | 665.14
12020 kPa, x2 = 0.4411 | – | 672.6
12020 kPa, x2 = 0.7301 | – | 700.4
12020 kPa, x2 = 0.8823 | 736.81 | –
13000 kPa, x2 = 0.3158 | 677.55 | 666.41
13000 kPa, x2 = 0.4411 | – | 673.84
13000 kPa, x2 = 0.8823 | – | 726.58
13010 kPa, x2 = 0.1631 | 670.56 | 660.51
13010 kPa, x2 = 0.2111 | – | 662.01
13010 kPa, x2 = 0.7301 | – | 701.64
13010 kPa, x2 = 0.8823 | 737.84 | –
13020 kPa, x2 = 0.2111 | 672.46 | –
13020 kPa, x2 = 0.4411 | 685.53 | –
13020 kPa, x2 = 0.7301 | 713.71 | –
14000 kPa, x2 = 0.1631 | 671.69 | –
14000 kPa, x2 = 0.3158 | 678.66 | –
14000 kPa, x2 = 0.4411 | 686.68 | –
14000 kPa, x2 = 0.7301 | 714.83 | –
14010 kPa, x2 = 0.1631 | – | 661.7
14010 kPa, x2 = 0.2111 | 673.57 | 663.23
14010 kPa, x2 = 0.3158 | – | 667.62
14010 kPa, x2 = 0.7301 | – | 702.82
14010 kPa, x2 = 0.8823 | 738.9 | –
14020 kPa, x2 = 0.4411 | – | 675.08
14020 kPa, x2 = 0.8823 | – | 727.76
15000 kPa, x2 = 0.4411 | 687.73 | –
15000 kPa, x2 = 0.8823 | 739.94 | 728.85
15010 kPa, x2 = 0.1631 | 672.77 | 662.89
15010 kPa, x2 = 0.4411 | – | 676.25
15010 kPa, x2 = 0.7301 | – | 704
15020 kPa, x2 = 0.2111 | 674.7 | 664.4
15020 kPa, x2 = 0.3158 | 679.74 | 668.79
15020 kPa, x2 = 0.7301 | 715.89 | –
16000 kPa, x2 = 0.3158 | – | 669.98
16000 kPa, x2 = 0.8823 | – | 729.97
16010 kPa, x2 = 0.1631 | 673.82 | –
16010 kPa, x2 = 0.2111 | 675.76 | 665.57
16010 kPa, x2 = 0.3158 | 680.86 | –
16010 kPa, x2 = 0.7301 | 716.98 | 705.17
16010 kPa, x2 = 0.8823 | 740.94 | –
16020 kPa, x2 = 0.1631 | – | 664
16020 kPa, x2 = 0.4411 | 688.85 | 677.45
17000 kPa, x2 = 0.1631 | 674.88 | –
17000 kPa, x2 = 0.3158 | 681.92 | –
17000 kPa, x2 = 0.4411 | 689.88 | –
17000 kPa, x2 = 0.7301 | – | 706.32
17000 kPa, x2 = 0.8823 | – | 731.02
17010 kPa, x2 = 0.1631 | – | 665.15
17010 kPa, x2 = 0.3158 | – | 671.18
17010 kPa, x2 = 0.4411 | – | 678.56
17010 kPa, x2 = 0.7301 | 718.02 | –
17020 kPa, x2 = 0.2111 | 676.83 | 666.77
17020 kPa, x2 = 0.8823 | 741.94 | –
18000 kPa, x2 = 0.8823 | – | 732.11
18010 kPa, x2 = 0.1631 | 675.92 | –
18010 kPa, x2 = 0.2111 | 677.86 | –
18010 kPa, x2 = 0.3158 | – | 672.26
18010 kPa, x2 = 0.4411 | 690.94 | 679.72
18010 kPa, x2 = 0.7301 | 719.02 | –
18010 kPa, x2 = 0.8823 | 742.92 | –
18020 kPa, x2 = 0.1631 | – | 666.27
18020 kPa, x2 = 0.2111 | – | 667.86
18020 kPa, x2 = 0.3158 | 682.96 | –
18020 kPa, x2 = 0.7301 | – | 707.41
19000 kPa, x2 = 0.1631 | 676.89 | 667.34
19000 kPa, x2 = 0.4411 | – | 680.79
19000 kPa, x2 = 0.8823 | – | 733.13
19010 kPa, x2 = 0.2111 | 678.87 | 668.92
19010 kPa, x2 = 0.3158 | 683.98 | 673.36
19010 kPa, x2 = 0.4411 | 691.96 | –
19010 kPa, x2 = 0.7301 | 720.02 | 708.47
19010 kPa, x2 = 0.8823 | 743.88 | –
20000 kPa, x2 = 0.7301 | 721.02 | –
20000 kPa, x2 = 0.8823 | 744.83 | –
20010 kPa, x2 = 0.1631 | 677.88 | 668.36
20010 kPa, x2 = 0.2111 | – | 669.97
20010 kPa, x2 = 0.3158 | 684.96 | 674.4
20010 kPa, x2 = 0.4411 | 692.97 | –
20020 kPa, x2 = 0.2111 | 679.82 | –
20020 kPa, x2 = 0.4411 | – | 681.9
20020 kPa, x2 = 0.7301 | – | 709.58
20020 kPa, x2 = 0.8823 | – | 734.15
